One assay addresses T1, FLT3(D835V) (Homo sapiens, UniProt P36888, D835V).
T1 construct: purchased Eurofins DiscoverX KINOMEscan
The assay is described as follows: KINOMEscan 1 μM, FLT3(D835V). It is filed as binding. Particulars: 1000 nM; Entrez FLT3; read-out: Percent Control. From the text: (§1) Supplement cells-12-00287-s001.zip/File S2. KinomeScan data for the CAMKK2 probe and negative control.xlsx, sheet "SGC-CAMKK2-1" | column: Percent Control

A further assay addresses T2, PDPK1 (Homo sapiens, UniProt O15530).
T2 construct: purchased Eurofins DiscoverX KINOMEscan
The assay is described as follows: KINOMEscan 1 μM, PDPK1. It is filed as binding. The following applies: 1000 nM; Entrez PDPK1; read-out: Percent Control.
Excerpt: as §1

Assay [1] addresses T3, RPS6KA5(Kin.Dom.1-N-terminal) (Homo sapiens, UniProt O75582).
T3 construct: RPS6KA5(Kin.Dom.1-N-terminal); purchased Eurofins DiscoverX KINOMEscan
The assay is described as follows: KINOMEscan 1 μM, RPS6KA5(Kin.Dom.1-N-terminal). It is filed as binding. The following applies: 1000 nM; Entrez RPS6KA5; read-out: Percent Control.
Excerpt: as §1

The next assay deals with T4, PIK3CA(H1047L) (Homo sapiens, UniProt P42336, H1047L).
T4 construct: purchased Eurofins DiscoverX KINOMEscan
T4 sequence (P42336 whole entry H1047L): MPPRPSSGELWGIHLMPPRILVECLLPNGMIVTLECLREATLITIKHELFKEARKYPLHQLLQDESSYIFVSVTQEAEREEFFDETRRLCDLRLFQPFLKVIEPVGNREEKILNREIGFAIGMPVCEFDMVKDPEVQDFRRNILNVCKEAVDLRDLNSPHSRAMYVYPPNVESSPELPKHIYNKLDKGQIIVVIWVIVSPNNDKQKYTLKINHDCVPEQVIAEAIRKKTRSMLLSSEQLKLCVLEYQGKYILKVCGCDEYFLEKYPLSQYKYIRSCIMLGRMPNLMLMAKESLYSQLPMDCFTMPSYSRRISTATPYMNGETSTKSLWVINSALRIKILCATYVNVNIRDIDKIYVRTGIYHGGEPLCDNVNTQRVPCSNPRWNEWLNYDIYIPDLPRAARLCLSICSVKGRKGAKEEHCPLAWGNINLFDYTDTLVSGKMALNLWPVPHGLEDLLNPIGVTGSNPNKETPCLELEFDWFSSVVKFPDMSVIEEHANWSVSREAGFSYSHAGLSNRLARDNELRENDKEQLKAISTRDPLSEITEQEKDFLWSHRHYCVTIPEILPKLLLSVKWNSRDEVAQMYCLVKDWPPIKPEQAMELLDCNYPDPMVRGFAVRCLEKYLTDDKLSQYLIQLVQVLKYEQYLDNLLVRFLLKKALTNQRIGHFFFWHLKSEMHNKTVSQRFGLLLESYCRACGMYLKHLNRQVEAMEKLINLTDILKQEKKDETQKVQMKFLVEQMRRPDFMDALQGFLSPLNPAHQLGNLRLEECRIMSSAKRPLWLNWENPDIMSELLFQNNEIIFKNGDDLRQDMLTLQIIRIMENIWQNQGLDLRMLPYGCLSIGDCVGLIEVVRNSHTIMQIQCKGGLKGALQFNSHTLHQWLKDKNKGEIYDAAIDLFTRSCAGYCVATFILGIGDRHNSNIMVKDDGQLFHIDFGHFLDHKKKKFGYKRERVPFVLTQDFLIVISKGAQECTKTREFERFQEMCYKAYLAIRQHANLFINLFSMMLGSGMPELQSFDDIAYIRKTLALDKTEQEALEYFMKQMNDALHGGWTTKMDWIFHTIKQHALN
The assay is described as follows: KINOMEscan 1 μM, PIK3CA(H1047L). It is filed as binding. The following applies: 1000 nM; Entrez PIK3CA; read-out: Percent Control.
Excerpt: as §1

For a further assay, the target named is T5, PYK2 (Homo sapiens, UniProt Q14289).
T5 construct: purchased Eurofins DiscoverX KINOMEscan
The assay is described as follows: DiscoverX KINOMEscan binding assay at 1 μM, PYK2. Particulars: PYK2 (PTK2B); Compound Concentration 1000 nM; read-out: Percent Control.
Excerpt: as §1

Another assay has as its target T6, ROS1 (Homo sapiens, UniProt P08922).
T6 construct: purchased Eurofins DiscoverX KINOMEscan
Nature of the assay: KINOMEscan 1 μM, ROS1. Type of assay: binding. The following applies: 1000 nM; Entrez ROS1; read-out: Percent Control.
Excerpt: as §1

The next assay deals with T7, p38-delta (Homo sapiens, UniProt O15264).
T7 construct: purchased Eurofins DiscoverX KINOMEscan
Nature of the assay: KINOMEscan 1 μM, p38-delta. It is filed as binding. Particulars: 1000 nM; Entrez MAPK13; read-out: Percent Control.
Excerpt: as §1

A further assay addresses T8, PIK3C2G (Homo sapiens, UniProt O75747).
T8 construct: purchased Eurofins DiscoverX KINOMEscan
Nature of the assay: KINOMEscan 1 μM, PIK3C2G. It is filed as binding. Particulars: 1000 nM; Entrez PIK3C2G; read-out: Percent Control.
Excerpt: as §1

In another assay the target is T9, MARK1 (Homo sapiens, UniProt Q9P0L2).
T9 construct: purchased Eurofins DiscoverX KINOMEscan
The assay is described as follows: KINOMEscan 1 μM, MARK1. Type of assay: binding. Particulars: 1000 nM; Entrez MARK1; read-out: Percent Control.
Excerpt: as §1

The target in a further assay is T10, MELK (Homo sapiens, UniProt Q14680).
T10 construct: purchased Eurofins DiscoverX KINOMEscan
The assay is described as follows: KINOMEscan 1 μM, MELK. Type of assay: binding. The following applies: 1000 nM; Entrez MELK; read-out: Percent Control.
Excerpt: as §1

For another assay, the target named is T11, RIPK1 (Homo sapiens, UniProt Q13546).
T11 construct: purchased Eurofins DiscoverX KINOMEscan
Nature of the assay: KINOMEscan 1 μM, RIPK1. Type of assay: binding. Particulars: 1000 nM; Entrez RIPK1; read-out: Percent Control.
Excerpt: as §1

The target of a further assay is T12, BRAF(V600E) (Homo sapiens, UniProt P15056, V600E).
T12 construct: purchased Eurofins DiscoverX KINOMEscan
Nature of the assay: KINOMEscan 1 μM, BRAF(V600E). Type of assay: binding. The following applies: 1000 nM; Entrez BRAF; read-out: Percent Control.
Excerpt: as §1

A further assay has as its target T13, CSF1R (Homo sapiens, UniProt P07333).
T13 construct: purchased Eurofins DiscoverX KINOMEscan
Nature of the assay: KINOMEscan 1 μM, CSF1R. It is filed as binding. Particulars: 1000 nM; Entrez CSF1R; read-out: Percent Control.
Excerpt: as §1

For the next assay, the target named is T14, PRKG1 (Homo sapiens, UniProt Q13976).
T14 construct: purchased Eurofins DiscoverX KINOMEscan
Nature of the assay: DiscoverX KINOMEscan binding assay at 1 μM, PRKG1. Particulars: Compound Concentration 1000 nM, read-out: Percent Control.
Excerpt: as §1

The next assay has as its target T15, IGF1R (Homo sapiens, UniProt P08069).
T15 construct: purchased Eurofins DiscoverX KINOMEscan
Nature of the assay: KINOMEscan 1 μM, IGF1R. Type of assay: binding. Particulars: 1000 nM; Entrez IGF1R; read-out: Percent Control.
Excerpt: as §1

For the next assay, the target named is T16, EPHA5 (Homo sapiens, UniProt P54756).
T16 construct: purchased Eurofins DiscoverX KINOMEscan
T16 sequence (P54756 25-1037): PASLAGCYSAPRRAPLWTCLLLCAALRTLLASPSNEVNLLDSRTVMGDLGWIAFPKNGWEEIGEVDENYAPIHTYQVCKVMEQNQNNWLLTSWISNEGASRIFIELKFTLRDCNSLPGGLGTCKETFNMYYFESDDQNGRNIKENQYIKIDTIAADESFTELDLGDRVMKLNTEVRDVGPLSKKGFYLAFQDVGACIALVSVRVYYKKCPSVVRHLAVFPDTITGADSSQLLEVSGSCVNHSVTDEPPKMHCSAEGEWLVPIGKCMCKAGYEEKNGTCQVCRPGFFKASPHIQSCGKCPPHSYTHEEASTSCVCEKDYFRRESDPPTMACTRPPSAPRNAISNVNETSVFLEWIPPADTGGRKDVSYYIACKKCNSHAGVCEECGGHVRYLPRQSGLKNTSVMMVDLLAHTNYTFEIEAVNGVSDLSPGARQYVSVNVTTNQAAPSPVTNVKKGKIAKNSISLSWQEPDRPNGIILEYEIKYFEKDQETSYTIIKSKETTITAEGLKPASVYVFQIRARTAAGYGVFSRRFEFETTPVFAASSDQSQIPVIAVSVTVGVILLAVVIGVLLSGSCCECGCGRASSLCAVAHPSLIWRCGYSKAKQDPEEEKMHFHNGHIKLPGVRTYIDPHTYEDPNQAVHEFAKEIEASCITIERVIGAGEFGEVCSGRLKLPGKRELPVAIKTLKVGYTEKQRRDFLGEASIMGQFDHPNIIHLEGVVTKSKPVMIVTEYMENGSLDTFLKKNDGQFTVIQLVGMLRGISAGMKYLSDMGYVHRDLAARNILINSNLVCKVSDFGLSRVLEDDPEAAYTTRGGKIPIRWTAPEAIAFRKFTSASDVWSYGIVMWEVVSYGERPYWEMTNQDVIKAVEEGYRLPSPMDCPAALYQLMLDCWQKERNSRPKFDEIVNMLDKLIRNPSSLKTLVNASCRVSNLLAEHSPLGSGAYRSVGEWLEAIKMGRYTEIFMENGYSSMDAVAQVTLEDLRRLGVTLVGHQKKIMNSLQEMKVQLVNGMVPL
The assay is described as follows: KINOMEscan binding assay at 1 μM, EPHA5. Particulars: Compound Concentration 1000 nM; read-out: Percent Control. From the text:
(§2) Supplement cells-12-00287-s001.zip/File S2. KinomeScan data for the CAMKK2 probe and negative control.xlsx, sheet "SGC-CAMKK2-1N" | column: Percent Control

In a further assay the target is T17, CAMK2A (Homo sapiens, UniProt Q9UQM7).
T17 construct: purchased Eurofins DiscoverX KINOMEscan
The assay is described as follows: KINOMEscan at 1 μM, CAMK2A. Type of assay: binding. Particulars: 1000 nM, read-out: Percent Control.
Excerpt: as §2

The target in a further assay is T18, AURKA (Homo sapiens, UniProt O14965).
T18 construct: purchased Eurofins DiscoverX KINOMEscan
T18 sequence (O14965 whole entry): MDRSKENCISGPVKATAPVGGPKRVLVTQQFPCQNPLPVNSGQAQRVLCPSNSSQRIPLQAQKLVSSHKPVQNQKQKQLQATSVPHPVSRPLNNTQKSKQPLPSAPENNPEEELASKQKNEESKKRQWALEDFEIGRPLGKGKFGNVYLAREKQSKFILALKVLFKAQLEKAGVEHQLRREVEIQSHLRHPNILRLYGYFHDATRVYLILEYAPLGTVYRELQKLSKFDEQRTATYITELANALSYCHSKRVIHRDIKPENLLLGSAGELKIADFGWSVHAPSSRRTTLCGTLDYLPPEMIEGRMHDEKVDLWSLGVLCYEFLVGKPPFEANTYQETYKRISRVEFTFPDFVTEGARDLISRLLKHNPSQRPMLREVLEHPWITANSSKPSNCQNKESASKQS
Nature of the assay: KINOMEscan at 1 μM, AURKA. It is filed as binding. The following applies: 1000 nM, read-out: Percent Control.
Excerpt: as §2

For the next assay, the target named is T19, GRK2 (Homo sapiens, UniProt P25098).
T19 construct: purchased Eurofins DiscoverX KINOMEscan
T19 sequence (P25098 whole entry): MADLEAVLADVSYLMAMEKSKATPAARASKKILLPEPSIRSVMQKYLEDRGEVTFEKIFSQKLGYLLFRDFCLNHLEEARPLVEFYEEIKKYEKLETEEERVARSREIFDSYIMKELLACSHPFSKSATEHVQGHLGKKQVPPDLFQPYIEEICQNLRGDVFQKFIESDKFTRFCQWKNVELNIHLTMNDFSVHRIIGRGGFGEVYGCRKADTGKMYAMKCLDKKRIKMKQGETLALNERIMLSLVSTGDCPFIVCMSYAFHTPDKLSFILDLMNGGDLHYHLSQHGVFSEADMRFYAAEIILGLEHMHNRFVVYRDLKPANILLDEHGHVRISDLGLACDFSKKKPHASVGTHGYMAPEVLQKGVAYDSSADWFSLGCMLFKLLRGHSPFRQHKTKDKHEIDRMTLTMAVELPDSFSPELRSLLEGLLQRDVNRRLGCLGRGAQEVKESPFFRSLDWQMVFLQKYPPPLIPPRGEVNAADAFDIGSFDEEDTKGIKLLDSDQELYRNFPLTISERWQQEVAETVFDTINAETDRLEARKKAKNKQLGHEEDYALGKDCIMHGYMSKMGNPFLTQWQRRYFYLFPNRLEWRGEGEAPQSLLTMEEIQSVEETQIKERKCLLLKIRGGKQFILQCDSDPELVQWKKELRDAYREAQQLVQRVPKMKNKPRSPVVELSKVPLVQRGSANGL
Nature of the assay: KINOMEscan at 1 μM, GRK2. Type of assay: binding. The following applies: 1000 nM, read-out: Percent Control.
Excerpt: as §2

A further assay concerns the target T20, EGFR(E746-A750del) (Homo sapiens, UniProt P00533, DEL746-750).
T20 construct: purchased Eurofins DiscoverX KINOMEscan
Nature of the assay: KINOMEscan at 1 μM, EGFR(E746-A750del). It is filed as binding. The following applies: 1000 nM, read-out: Percent Control.
Excerpt: as §2

The target in the next assay is T21, BMX (Homo sapiens, UniProt P51813).
T21 construct: purchased Eurofins DiscoverX KINOMEscan
Nature of the assay: KINOMEscan at 1 μM, BMX. It is filed as binding. The following applies: 1000 nM, read-out: Percent Control.
Excerpt: as §2

A further assay addresses T22, EGFR(L861Q) (Homo sapiens, UniProt P00533, L861Q).
T22 construct: purchased Eurofins DiscoverX KINOMEscan
Nature of the assay: KINOMEscan binding assay at 1 μM, EGFR(L861Q). Particulars: Compound Concentration 1000 nM; read-out: Percent Control.
Excerpt: as §2

The target in another assay is T23, KIT(D816H) (Homo sapiens, UniProt P10721, D816H).
T23 construct: purchased Eurofins DiscoverX KINOMEscan
Nature of the assay: KINOMEscan at 1 μM, KIT(D816H). The following applies: 1000 nM, read-out: Percent Control. Type of assay: binding.
Excerpt: as §2

The target of another assay is T24, CDKL3 (Homo sapiens, UniProt Q8IVW4).
T24 construct: purchased Eurofins DiscoverX KINOMEscan
The assay is described as follows: KINOMEscan at 1 μM, CDKL3. It is filed as binding. The following applies: 1000 nM, read-out: Percent Control.
Excerpt: as §2

In another assay the target is T25, ULK2 (Homo sapiens, UniProt Q8IYT8).
T25 construct: purchased Eurofins DiscoverX KINOMEscan
The assay is described as follows: KINOMEscan at 1 μM, ULK2. It is filed as binding. Particulars: 1000 nM, read-out: Percent Control.
Excerpt: as §2

For a further assay, the target named is T26, BIKE (Homo sapiens, UniProt Q9NSY1).
T26 construct: purchased Eurofins DiscoverX KINOMEscan
Nature of the assay: KINOMEscan at 1 μM, BIKE. The following applies: 1000 nM, read-out: Percent Control. It is filed as binding.
Excerpt: as §2

Another assay deals with T27, ABL2 (Homo sapiens, UniProt P42684).
T27 construct: purchased Eurofins DiscoverX KINOMEscan
T27 sequence (P42684 whole entry): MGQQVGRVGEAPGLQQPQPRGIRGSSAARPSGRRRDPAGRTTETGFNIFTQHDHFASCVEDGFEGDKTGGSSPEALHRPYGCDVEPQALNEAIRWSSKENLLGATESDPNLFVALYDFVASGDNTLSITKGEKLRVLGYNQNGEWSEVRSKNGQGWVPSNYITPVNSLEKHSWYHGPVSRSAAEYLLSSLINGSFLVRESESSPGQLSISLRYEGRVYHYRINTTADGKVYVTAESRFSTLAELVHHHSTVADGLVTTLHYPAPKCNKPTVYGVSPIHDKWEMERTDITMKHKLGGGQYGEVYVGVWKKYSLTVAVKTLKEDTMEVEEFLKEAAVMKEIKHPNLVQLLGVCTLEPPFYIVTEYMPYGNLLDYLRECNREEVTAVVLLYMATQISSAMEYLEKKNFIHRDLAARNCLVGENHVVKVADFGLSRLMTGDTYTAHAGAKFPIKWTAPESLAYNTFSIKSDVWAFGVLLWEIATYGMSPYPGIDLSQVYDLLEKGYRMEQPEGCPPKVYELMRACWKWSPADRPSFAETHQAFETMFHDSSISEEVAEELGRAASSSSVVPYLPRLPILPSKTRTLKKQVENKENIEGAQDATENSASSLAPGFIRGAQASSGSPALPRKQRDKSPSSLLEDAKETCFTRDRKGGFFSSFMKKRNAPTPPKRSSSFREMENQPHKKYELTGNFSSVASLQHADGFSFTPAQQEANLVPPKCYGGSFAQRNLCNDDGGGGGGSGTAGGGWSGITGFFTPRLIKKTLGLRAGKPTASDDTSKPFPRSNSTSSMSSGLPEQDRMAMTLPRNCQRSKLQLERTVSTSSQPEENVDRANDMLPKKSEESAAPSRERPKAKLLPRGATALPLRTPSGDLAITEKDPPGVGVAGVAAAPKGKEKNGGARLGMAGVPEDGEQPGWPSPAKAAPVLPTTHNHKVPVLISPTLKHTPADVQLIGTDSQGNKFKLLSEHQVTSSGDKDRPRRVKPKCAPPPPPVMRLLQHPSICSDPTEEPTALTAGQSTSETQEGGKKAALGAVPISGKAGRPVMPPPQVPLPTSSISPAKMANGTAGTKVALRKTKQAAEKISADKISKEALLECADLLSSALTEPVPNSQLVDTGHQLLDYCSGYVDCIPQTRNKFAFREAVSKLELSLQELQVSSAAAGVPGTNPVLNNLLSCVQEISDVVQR
Nature of the assay: KINOMEscan at 1 μM, ABL2. Particulars: 1000 nM, read-out: Percent Control. It is filed as binding.
Excerpt: as §2

A further assay has as its target T28, CAMK1G (Homo sapiens, UniProt Q96NX5).
T28 construct: purchased Eurofins DiscoverX KINOMEscan
The assay is described as follows: KINOMEscan at 1 μM, CAMK1G. Type of assay: binding. The following applies: 1000 nM, read-out: Percent Control.
Excerpt: as §2

A further assay addresses T29, PIM3 (Homo sapiens, UniProt Q86V86).
T29 construct: purchased Eurofins DiscoverX KINOMEscan
Nature of the assay: KINOMEscan at 1 μM, PIM3. Type of assay: binding. Particulars: 1000 nM, read-out: Percent Control.
Excerpt: as §2

In another assay the target is T30, CSNK1G1 (Homo sapiens, UniProt Q9HCP0).
T30 construct: purchased Eurofins DiscoverX KINOMEscan
The assay is described as follows: KINOMEscan at 1 μM, CSNK1G1. It is filed as binding. Particulars: 1000 nM, read-out: Percent Control.
Excerpt: as §2

The target in a further assay is T31, DYRK2 (Homo sapiens, UniProt Q92630).
T31 construct: purchased Eurofins DiscoverX KINOMEscan
The assay is described as follows: KINOMEscan at 1 μM, DYRK2. It is filed as binding. Particulars: 1000 nM, read-out: Percent Control.
Excerpt: as §2

A further assay concerns the target T32, GRK7 (Homo sapiens, UniProt Q8WTQ7).
T32 construct: purchased Eurofins DiscoverX KINOMEscan
The assay is described as follows: KINOMEscan at 1 μM, GRK7. Type of assay: binding. The following applies: 1000 nM, read-out: Percent Control.
Excerpt: as §2

For another assay, the target named is T33, CDK9 (Homo sapiens, UniProt P50750).
T33 construct: purchased Eurofins DiscoverX KINOMEscan
T33 sequence (P50750 whole entry): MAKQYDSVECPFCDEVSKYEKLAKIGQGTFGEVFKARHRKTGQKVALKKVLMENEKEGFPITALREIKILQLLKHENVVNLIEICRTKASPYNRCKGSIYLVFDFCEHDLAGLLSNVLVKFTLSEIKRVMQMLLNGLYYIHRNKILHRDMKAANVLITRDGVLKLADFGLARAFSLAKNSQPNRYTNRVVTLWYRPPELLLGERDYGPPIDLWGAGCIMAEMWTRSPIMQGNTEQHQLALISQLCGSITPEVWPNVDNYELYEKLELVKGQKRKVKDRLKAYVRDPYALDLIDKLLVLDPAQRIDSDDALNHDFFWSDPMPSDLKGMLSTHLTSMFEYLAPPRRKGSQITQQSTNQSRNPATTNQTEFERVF
The assay is described as follows: KINOMEscan at 1 μM, CDK9. Type of assay: binding. The following applies: 1000 nM, read-out: Percent Control.
Excerpt: as §2

Results on 2 compounds are retold here after publication PMC9856672, “SGC-CAMKK2-1: A Chemical Probe for CAMKK2” (Cells, 2023).

T20 sequence (P00533 with tags, fused parts or gaps DEL746-750 limits assumed): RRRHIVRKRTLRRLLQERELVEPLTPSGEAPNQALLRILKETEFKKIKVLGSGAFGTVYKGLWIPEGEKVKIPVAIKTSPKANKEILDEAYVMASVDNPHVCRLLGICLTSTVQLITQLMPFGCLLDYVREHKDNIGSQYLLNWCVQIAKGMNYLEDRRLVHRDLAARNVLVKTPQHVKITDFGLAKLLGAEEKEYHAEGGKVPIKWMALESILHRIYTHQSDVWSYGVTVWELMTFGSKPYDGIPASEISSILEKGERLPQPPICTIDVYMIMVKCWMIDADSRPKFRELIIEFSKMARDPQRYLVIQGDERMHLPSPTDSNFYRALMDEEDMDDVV

Turning to `Cc1cccc(-c2cnc3occ(-c4ccc(C(=O)O)c(C5CCCC5)c4)c3c2)c1` [SGC-CAMKK2-1 (YL-36)], the remaining binding at 1 µM worked out at 100% on FLT3(D835V); 95% at PDPK1; 98% in [1]; 78% on PIK3CA(H1047L); 100% on PYK2; 84% at ROS1. Further, the remaining binding at 1 µM worked out at 69% on p38-delta; 81% on PIK3C2G; 100% on MARK1; 79% at MELK; 93% on RIPK1; 100% on BRAF(V600E). The remaining binding at 1 µM on CSF1R, at PRKG1 and at IGF1R was 100% throughout.
Consider `O=C(O)c1ccc(-c2coc3ncc(-c4ccccc4)cc23)cc1Cl` [SGC-CAMKK2-1N (UNC-YL-83)], for which the remaining binding at 1 µM on EPHA5 amounted to 100%; at CAMK2A, 65%; on AURKA, 74%; at GRK2, 55%; on EGFR(E746-A750del), 100%; at BMX it was 77%. The remaining binding at 1 µM is 100% on EGFR(L861Q); 57% on KIT(D816H); 63% on CDKL3; 71% on ULK2; 94% at BIKE; 100% on ABL2. The remaining binding at 1 µM on CAMK1G was found to be 86%; on PIM3, 66%; at CSNK1G1, 95%; at DYRK2, 100%; on GRK7, 50%; at CDK9 it was 89%.
